Experiments:
[1] = system: human small cell lung cancer (H1688) cells; experiment: Cytotoxicity MTT assay, H1688 cell line; format: cell-based; conditions: 37 °C, 24 h, read-out: cytotoxicity toward H1688 cell line, IC50
Method: The cytotoxicities of compounds were analyzed by using the human small cell lung cancer H1688 cell line and the 3-(4,5-dimethylthiazol-2-yl)-2,5-diphenyl tetrazolium bromide (MTT, Sigma-Aldrich, St. Louis, MO, USA) assay at 37 °C for 24 h.

[2] = Cell viability of dendritic cells (CCK-8); format: cell-based, murine; conditions: mouse, dendritic cells (DCs), CCK-8, 37 °C, read-out: cytotoxicity against DCs, IC50
Method: The DCs (1 × 10^6) were treated with tested compounds (100 μg/mL) and cultured at 37 °C for 24 h. Cytotoxicity was examined using a Cell Counting Kit-8 (CCK-8; Dojindo Molecular Technologies, Inc., Kumamoto, Japan) according to the manufacturer’s protocol. The absorbance was recorded on a microplate reader (Tecan Group Ltd., Männedorf, Switzerland) at a wavelength of 450 nm.

[3] = system: TNF-α expression in LPS-stimulated murine dendritic cells (DCs); experiment: TNF-α expression by LPS-induced DCs (ELISA); format: cell-based; conditions: Mus musculus, Dendritic cell, 100 ng/mL LPS, 24 h, read-out: inhibition of TNF-α expression in LPS-stimulated DCs, IC50
Method: The TNF-α expressions of LPS-induced DCs were measured by enzyme-link immunosorbent assay (ELISA), in the same way as the previously reported method. The DCs were treated with 100 ng/mL lipopolysaccharide (LPS) and the isolated compounds for 24 h. The optical density of the production of TNF-α was measured at 450 nm by the ELISA reader.

| SMILES | IC50 [1] | IC50 at 24 h [2] | IC50 [3] |
| --- | --- | --- | --- |
| C=C[C@@](C)(Cl)[C@@H](Cl)/C=C/C(=C/Cl)C(Cl)Cl (relative stereo) [(3R*,4S*,5E,7Z)-7-dichlorothyl-3,4,8-trichloro-3-methylocta-1,5,7-triene] | 4.2 ± 2.1 µM |  |  |
| O=c1c(O)c(-c2ccc(O)c(O)c2)oc2cc(O)cc(O)c12 [Quercetin] |  | 78.8 ± 7.3 µM | 23.1 ± 5.2 µM |
| COC1OC2C=C(C)CCC=C(C)CCC3OC3(C)CCC2=C1C (stereo not drawn) [compound 3, 16β-Methoxyisosarcophytoxide] | 27.5 ± 6.4 µM |  |  |
| COC1OC2C=C(C)CCC=C(C)CCC3OC3(C)CCC2=C1C (stereo not drawn) [compound 4, 16α-Methoxyisosarcophytoxide] | 85.8 µM |  |  |

From article PMC9862023, “Isosarcophytoxide Derivatives with a 2,5-Dihydrofuran Moiety from the Soft Coral Sarcophyton cinereum” (Molecules, 2023)
